Reference: article PMC12914960, “Repurposing a detrimental antibody epitope as targeted therapeutics for sepsis and rheumatoid arthritis” (Military Medical Research, 2026)
Where “and” joins values, the source holds several entries; their conditions need not be identical. Equal entries are not always repeated. Where a SMILES comes first, the peptide text is derived from it.

Experiments:
[1] = system: CAIA-induced pain sensitivity in BALB/c mice; assay: Mechanical allodynia, Von Frey filaments, in CAIA mice; format: in vivo, mouse; set-up: key to CAIA-induced pain sensitivity (Von Frey score) / CAIA-induced pain response (Vor Frey score): 50% paw withdrawal threshold, force in g; details: for CAIA-induced pain response (Vor Frey score): female, effect of mAb2, P2-1
Procedure: Mechanical allodynia was assessed using Von Frey filaments (Stoelting Co., Wood Dale, IL, USA) applied to the plantar surface of the hind paws as previously described. The mice (n = 6–10) were habituated to individual transparent enclosures on an elevated wire mesh platform. Calibrated Von Frey filaments (0.008–2.000 g) were applied for 2–3 s or until a withdrawal response occurred. The “up-down” method determines the 50% paw withdrawal threshold, defined as the force required to elicit a withdrawal response in 50% of applications.

human PBMCs = assay: HMGB1-induced cytokine/chemokine secretion by PBMCs, cytokine antibody arrays; format: cell-based; details: P2-1 5.0 or 10.0 µg/ml, 16 h
Procedure: Human blood was purchased from the New York Blood Center (Long Island City, NY, USA), and PBMCs were isolated via density gradient centrifugation through Ficoll (Ficoll-Paque PLUS) as previously described. PBMCs were cultured in RPMI-1640 supplemented with 10% human serum, 2 mmol/L L-glutamine, 100 U/ml penicillin, and 100 µg/ml streptomycin (all from Invitrogen, Carlsbad, CA, USA). For experiments, PBMCs were stimulated with recombinant HMGB1 (0.5 or 2.0 µg/ml) for 16 h, either alone or in combination with P2-1 at 5.0 or 10.0 µg/ml. Cell-free supernatants were collected for analysis of cytokine/chemokine levels via cytokine antibody arrays, or pCTS-L levels via Western blotting analysis as previously described.
The levels of cytokines and chemokines in mouse serum and joint tissue lysates, or human PBMC culture supernatants, were determined via murine or human cytokine antibody arrays (e.g., Cat. #AAM-CYM-3–8 or Cat. #AAH-CYT-3–8, RayBiotech Inc., Norcross, GA, USA) as previously described. For the sepsis model, blood samples were collected from the mice (n = 4) at 24 h post-CLP. […] Arrays were performed according to the manufacturer’s protocol, followed by chemiluminescent detection and densitometric quantification as previously described. […]

[2] = system: Differentiated human macrophages; assay: HMGB1-induced macrophage death, LDH release; format: cell-based; set-up: key: % of maximal LDH release (2% Triton X-100); details: 16 h, percentage of maximal release (2% Triton X-100) per method, individual replicates
Procedure: Human macrophage differentiation and treatment
Human PBMCs were differentiated into macrophages by culturing in human macrophage colony-stimulating factor (M-CSF, 20 ng/ml) for 5 – 6 d. Differentiated macrophages were maintained in Dulbecco’s modified Eagle’s medium supplemented with 1% penicillin/streptomycin and 10% human serum. Upon reaching 70 – 80% conflu ence, adh erent cells were wash ed and switched to Opti-MEM I before stimulation with recombinant HMGB1 (0.5 µg/ml) with or without P2- 1 (5.0 or 10 µg/ml) for 16 […]
Cell viability was assessed via the tryp an blue excl usion and lactat e dehyd ro genase (LDH) release method as previously described . For trypan blue exclusion, random phase-contr ast images were captur ed , and the percentage of nonviable, trypan blue-stained cells was calculated. LDH release in the culture medium was quantified with an LDH Ass ay Kit (Cat. #L7572, Pointe Scientific Inc., Canton, MI, USA) according to the manufacturer ’s instructions. Optical density was measured at 340 nm, and LDH content was expressed as a per centag e of maximal release in the presence of 2% Triton X-100. The experiments were performed 5 – 7 times ( n= 5 –7 biological replicates). […]

CCCC[C@H](NC(=O)[C@H](Cc1c[nH]cn1)NC(=O)[C@@H](NC(=O)[C@H](CCCCN)NC(=O)[C@@H](N)[C@@H](C)O)C(C)C)C(=O)N[C@@H](CCCCN)C(=O)N[C@@H](CO)C(=O)N[C@@H](Cc1ccccc1)C(=O)N[C@@H](CC(C)C)C(=O)N[C@@H](C)C(=O)N[C@@H](Cc1ccccc1)C(=O)N[C@@H](CCC(N)=O)C(=O)N[C@H](C(=O)N[C@@H](CCCCN)C(=O)N[C@H](C(=O)O)[C@@H](C)O)[C@@H](C)O [P2-1] (HELM PEPTIDE1{T.K.V.H.[Nle].K.S.F.L.A.F.Q.T.K.T}$$$$V2.0; N-terminus and C-terminus assumed)
CAIA-induced pain sensitivity (Von Frey score) ([1]; CAIA + P2-1 (Day 10), individual values, P = 0.04443 vs. CAIA + Vehicle): 0.14 and 0.17 and 1.23 and 0.05 and 0.75 and 0.26 and 0.09 and 0.57 and 0.18 and 0.16 and 0.44 and 0.78 | pain sensitivity, in words ([1]; P2-1 prophylactic): significantly reduced CAIA-induced pain sensitivity through partial restoration of mechanical withdrawal thresholds | pain sensitivity, in words ([1]; P2-1 therapeutic, Von Frey): significantly reduced CAIA-induced pain sensitivity by partially restoring withdrawal thresholds to mechanical stimuli | CAIA-induced pain response (Vor Frey score) ([1]; Day 6, individual values): 0.37 and 0.11 and 0.21 and 0.16 and 1.19 | CAIA-induced pain response (Vor Frey score) ([1]; Day 10, individual values, P = 0.04443 vs. CAIA + Vehicle): 0.57 and 0.31 and 0.96 and 0.32 and 0.44 | HMGB1-induced cytokine/chemokine secretion, in words (human PBMCs): did not broadly inhibit the secretion of these HMGB1-induced cytokines and chemokines | LDH release ([2]; HMGB1 0.5 µg/ml + P2-1 5.0 μg/ml): 2.7008 and 6.752 and 2.4476 and 4.642 and 0.844 and 5.6548 | LDH release ([2]; HMGB1 0.5 µg/ml + P2-1 10.0 μg/ml): 1.0128 and 2.532 and 6.752 and 3.376 and 5.4016 and 2.6164 and 1.1816
